Reference: the NIST ThermoML archive (doi:10.1021/je050376y)
± gives the expanded uncertainty stated by the source.

Assay: xn = mol fraction of the nth substance listed
Settings: 101 kPa, Liquid

Cc1ccc(O)cc1 [4-methylphenol] + OCCO
Settings | mass density [kg/m3] | viscosity [mPa·s]
308.15 K, x1 = 0.1001 | 1088.89 ± 0.43 | 12.15 ± 0.22
308.15 K, x1 = 0.1999 | 1077.45 ± 0.43 | 12.43 ± 0.23
308.15 K, x1 = 0.2997 | 1067.32 ± 0.42 | 12.43 ± 0.23
308.15 K, x1 = 0.4001 | 1058.44 ± 0.42 | 12.09 ± 0.22
308.15 K, x1 = 0.4998 | 1050.66 ± 0.43 | 11.54 ± 0.21
308.15 K, x1 = 0.6002 | 1043.69 ± 0.43 | 10.83 ± 0.2
308.15 K, x1 = 0.7 | 1037.34 ± 0.43 | 10.01 ± 0.19
308.15 K, x1 = 0.8 | 1031.62 ± 0.44 | 9.31 ± 0.18
308.15 K, x1 = 0.8994 | 1026.55 ± 0.44 | 8.726 ± 0.17
308.15 K, x1 = 1 | 1021.98 ± 0.45 | 8.444 ± 0.17
313.15 K, x1 = 0.1001 | 1085.2 ± 0.43 | 9.956 ± 0.19
313.15 K, x1 = 0.1999 | 1073.68 ± 0.42 | 10.18 ± 0.19
313.15 K, x1 = 0.2997 | 1063.52 ± 0.42 | 10.13 ± 0.19
313.15 K, x1 = 0.4001 | 1054.58 ± 0.42 | 9.821 ± 0.19
313.15 K, x1 = 0.4998 | 1046.78 ± 0.42 | 9.353 ± 0.18
313.15 K, x1 = 0.6002 | 1039.82 ± 0.43 | 8.735 ± 0.17
313.15 K, x1 = 0.7 | 1033.45 ± 0.43 | 8.103 ± 0.16
313.15 K, x1 = 0.8 | 1027.72 ± 0.43 | 7.526 ± 0.15
313.15 K, x1 = 0.8994 | 1022.63 ± 0.44 | 7.022 ± 0.14
313.15 K, x1 = 1 | 1018.05 ± 0.45 | 6.745 ± 0.14
318.15 K, x1 = 0.1001 | 1081.49 ± 0.42 | 8.319 ± 0.16
318.15 K, x1 = 0.1999 | 1069.89 ± 0.42 | 8.436 ± 0.16
318.15 K, x1 = 0.2997 | 1059.67 ± 0.42 | 8.358 ± 0.16
318.15 K, x1 = 0.4001 | 1050.7 ± 0.42 | 8.059 ± 0.16
318.15 K, x1 = 0.4998 | 1042.88 ± 0.42 | 7.662 ± 0.15
318.15 K, x1 = 0.6002 | 1035.9 ± 0.42 | 7.175 ± 0.14
318.15 K, x1 = 0.7 | 1029.55 ± 0.43 | 6.646 ± 0.14
318.15 K, x1 = 0.8 | 1023.79 ± 0.43 | 6.177 ± 0.13
318.15 K, x1 = 0.8994 | 1018.7 ± 0.44 | 5.739 ± 0.12
318.15 K, x1 = 1 | 1014.09 ± 0.44 | 5.471 ± 0.12
323.15 K, x1 = 0.1001 | 1077.77 ± 0.42 | 7.031 ± 0.14
323.15 K, x1 = 0.1999 | 1066.09 ± 0.41 | 7.069 ± 0.14
323.15 K, x1 = 0.2997 | 1055.81 ± 0.41 | 6.976 ± 0.14
323.15 K, x1 = 0.4001 | 1046.81 ± 0.41 | 6.721 ± 0.14
323.15 K, x1 = 0.4998 | 1038.98 ± 0.42 | 6.378 ± 0.13
323.15 K, x1 = 0.6002 | 1031.99 ± 0.42 | 5.971 ± 0.12
323.15 K, x1 = 0.7 | 1025.61 ± 0.42 | 5.523 ± 0.12
323.15 K, x1 = 0.8 | 1019.85 ± 0.43 | 5.136 ± 0.11
323.15 K, x1 = 0.8994 | 1014.75 ± 0.43 | 4.788 ± 0.11
323.15 K, x1 = 1 | 1010.12 ± 0.44 | 4.532 ± 0.1
333.15 K, x1 = 0.1001 | 1070.28 ± 0.41 | 5.121 ± 0.11
333.15 K, x1 = 0.1999 | 1058.44 ± 0.41 | 5.137 ± 0.11
333.15 K, x1 = 0.2997 | 1048.06 ± 0.41 | 5.029 ± 0.11
333.15 K, x1 = 0.4001 | 1038.98 ± 0.41 | 4.824 ± 0.11
333.15 K, x1 = 0.4998 | 1031.11 ± 0.41 | 4.607 ± 0.1
333.15 K, x1 = 0.6002 | 1024.09 ± 0.41 | 4.298 ± 0.095
333.15 K, x1 = 0.7 | 1017.71 ± 0.42 | 3.988 ± 0.089
333.15 K, x1 = 0.8 | 1011.92 ± 0.42 | 3.711 ± 0.083
333.15 K, x1 = 0.8994 | 1006.8 ± 0.43 | 3.461 ± 0.078
333.15 K, x1 = 1 | 1002.09 ± 0.43 | 3.245 ± 0.073
343.15 K, x1 = 0.1001 | 1060.64 ± 5 | 3.886 ± 0.086
343.15 K, x1 = 0.1999 | 1048.68 ± 5 | 3.849 ± 0.086
343.15 K, x1 = 0.2997 | 1038.24 ± 5 | 3.752 ± 0.084
343.15 K, x1 = 0.4001 | 1029.09 ± 5 | 3.602 ± 0.081
343.15 K, x1 = 0.4998 | 1021.2 ± 5 | 3.424 ± 0.077
343.15 K, x1 = 0.6002 | 1014.17 ± 5 | 3.201 ± 0.072
343.15 K, x1 = 0.7 | 1007.79 ± 5 | 2.995 ± 0.068
343.15 K, x1 = 0.8 | 1001.99 ± 5 | 2.786 ± 0.063
343.15 K, x1 = 0.8994 | 996.84 ± 5 | 2.588 ± 0.059
343.15 K, x1 = 1 | 992.07 ± 5 | 2.431 ± 0.056
353.15 K, x1 = 0.1001 | 1055.58 ± 0.4 | 2.934 ± 0.066
353.15 K, x1 = 0.1999 | 1043.36 ± 0.39 | 2.99 ± 0.068
353.15 K, x1 = 0.2997 | 1032.81 ± 0.39 | 2.915 ± 0.066
353.15 K, x1 = 0.4001 | 1023.59 ± 0.39 | 2.776 ± 0.063
353.15 K, x1 = 0.4998 | 1015.62 ± 0.4 | 2.648 ± 0.06
353.15 K, x1 = 0.6002 | 1008.55 ± 0.4 | 2.488 ± 0.057
353.15 K, x1 = 0.7 | 1002.15 ± 0.4 | 2.326 ± 0.054
353.15 K, x1 = 0.8 | 996.33 ± 0.41 | 2.173 ± 0.05
353.15 K, x1 = 0.8994 | 991.1 ± 0.42 | 2.022 ± 0.047
353.15 K, x1 = 1 | 986.24 ± 0.43 | 1.891 ± 0.044
